Assay results: patent US6008356A, “Pharmaceutically available protoberberine salts derivatives, and protoberberine salts derivatives, and protoberberine derivatives and salts thereof” (priority 1998, dated 1999)
Where a name gives a salt, the structure may show the parent alone.

What was measured:
[1] = acute oral toxicity; details: rat, in vivo, po, rats
Experimental: (§1) Meanwhile, the toxicity test of the compound of the present invention was performed using […]. The compound was suspended in propylene glycol. The resulting suspension was medicated respectively on 5 female rats and 5 male rats(SD) of which age are 5 weeks, via oral after 12 hour starvation. The general symtoms, weight change and lethal case of the above rats were investigated. In cases of tests of the compound Nos. 25, 62, 63 and 85 (delivery of 2,000 mg/kg), the general symtom and weight change were normal and the lethal case was not observed. […] The toxicity data on the compound Nos. 25, 62, 63 and 85 are described in the following Table 5. In light forgoings, the compounds of the present invention are safe in toxicity and have the excellent lethal effect and growth-inhibition effect against fungus.

[2] = tested on: rats; assay: acute oral toxicity; details: rat, in vivo
Experimental: as §1

[3] = tested on: cultured lung cells derived from chinese hamster; format: cell-based
[4] = tested on: male ICR mice; details: mouse, in vivo
[5] = tested on: salmonella typhimurium; assay: bacterial reverse mutation test (Ames test); format: cell-based
[6] = tested on: Gram-negative or Gram-positive bacteria, such as Staphylococcus aureus, Staphylococcus hemolyticus, Salmonella typhosa, Shigella dysenteriae, Shigella …; details: cited from earlier work
[7] = tested on: C. albicans KCTC 1940; assay: MIC; format: cell-based, Candida albicans; details: Candida albicans, KCTC1940; C. albicans KCTC 1940; read-out: MIC
[8] = tested on: C. albicans U.K.; assay: MIC; format: cell-based; details: Candida albicans; C. albicans U.K.; read-out: MIC
[9] = tested on: fungal infection of foot; assay: 0.5% creamy formulation applied on male patients with fungal infection of foot; format: in vivo, human (male patients); details: 0.5% cream once a day for five days
From the text: The above 0.5% creamy formulation of the compound No. 62 was applied on infected area of 10 male patients with fungal infection of foot, in a proper amount once a day for five days.

[10] = tested on: E. floccosum; assay: MIC; format: cell-based, Epidermophyton floccosum; details: Epidermophyton floccosum; E. floccosum; read-out: MIC
[11] = tested on: C. albicans ATCC 28838; assay: MIC; format: cell-based, Candida albicans; details: Candida albicans, ATCC28838; C. albicans ATCC 28838; read-out: MIC
[12] = tested on: Epidermophyton floccosum; assay: Antifungal efficacy of creamy formulation against local fungal skin infection; format: in vivo, mouse (SKH/1, hairless, male); details: 0.5% cream, topical
Experimental: Specific pathogen free SKH/1 male mouse(Hairless) of which weight is 30-35 g and age is 5 weeks, was reared with sterilized water and feed for 12 night/day in the condition of 21-23° C. and of 50% relative humidity. Five mice were allocated by each group. After skin infection, each mouse was taken in separate cage. The strain of microorganism for infection(Epidermophyton floccosum) was cultivated on a flat medium of SDA(Sabouraud Dextrose Agar) for 5-7 days and after confirmation of macrocomidia, 3 ml of RPMI (Rosewell Park Memorial Institute) 1640 media per each flat medium was added thereto and then scraped well using loop to remove hyphae from media. The floating liquid was suspended briefly and then diluted with RPMI 1640 media to adjust the concentration of hyphae to 2×10^6 CFU/ml. Mouse was anesthetized and marked on back site(lumbosacral area) in a shape of circle of which diameter is 1.5 cm. Then, the inner part of marked skin was scratched with sand paper. The scratched part was covered with a filter paper to preserve inoculated microorganism for a long time and thereby stimulating the skin continuously. 0.2 ml of fungus solution of which concentration is adjusted as described above, was inoculated between the skin and filter paper. 5 Days after the inoculation, the filter paper was removed and the infection of skin was examined. The test formulations, 0.5% creamy formulations of the compounds Nos. 62 and 85, 1.0% creamy formulation of Terbinafine(Lamisile cream) and a placebo was applied on the infected areas in a same amount once a day for 5 days. The clinical evaluation on the change of the infected area in 5 days after the inoculation was performed and expressed numerically from 0 to 4. The daily change of the infected area was checked every day. The result of each group was compared with each other.
1: Mild erythema or small number of skin eruption
2: Well-demarcated erythema with scales or mild skin eruption of infected area
3: Wide area of marked skin eruption, scales, swelling or severe skin eruption with partial swelling and scales
4: The same as those of control, or severe skin eruption in entire lesion
The result was calculated as follows;
T: Average score of clinical evaluation in drug treated area
K: Average score of clinical evaluation in placebo control group
Moreover, the antifungal efficacies of the 0.5% creamy formulation of the compounds Nos. 29, 35, 60, 62, 63 and 85, and 1% creamy formulation of Terbinafme (Lamisil cream), which are measured by applying the above formulations on the skin infected with Epidermophyton floccosum of mouse which is the standard animal for the test of local fungal skin infection, i.e, Specific Pathogen Free SKH/1, are described in the following Table 4.

[13] = tested on: C. parapsilosis; assay: MIC; format: cell-based; details: Lodderomyces parapsilosis; C. parapsilosis; read-out: MIC
[14] = tested on: C. albicans IFO 1385; assay: MIC; format: cell-based, Candida albicans; details: Candida albicans, IFO1385; C. albicans IFO 1385; read-out: MIC
[15] = tested on: C. albicans OY 019; assay: MIC; format: cell-based, Candida albicans; details: Candida albicans, OY019; C. albicans OY 019; read-out: MIC
[16] = tested on: C. albicans ATCC 11651; assay: MIC; format: cell-based, Candida albicans; details: Candida albicans, ATCC11651; C. albicans ATCC 11651; read-out: MIC
[17] = tested on: C. glabrata; assay: MIC; format: cell-based; details: Nakaseomyces glabratus; C. glabrata; read-out: MIC
[18] = tested on: C. albicans OY 003; assay: MIC; format: cell-based, Candida albicans; details: Candida albicans, OY003; C. albicans OY 003; read-out: MIC
[19] = tested on: C. glulliermendi; assay: MIC; format: cell-based; details: C. glulliermendi; read-out: MIC
[20] = tested on: C. albicans ATCC 10231; assay: MIC; format: cell-based; details: Candida albicans, ATCC10231; C. albicans ATCC 10231; read-out: MIC
[21] = tested on: C. krusei; assay: MIC; format: cell-based; details: Pichia kudriavzevii; C. krusei; read-out: MIC
[22] = tested on: fungi, such as Alternaria sp., Aspergillus flavus, Aspergdlus fumigatus, Candida albicans, Curvularia sp., Drechslera sp., Fusarium sp., Mucor sp., Penicillium …; details: Mahajan et al. 1982; cited from earlier work
[23] = tested on: Candida albicans; details: oral, 350-700 mg/kg; Mirska et al. 1972; cited from earlier work
[24] = tested on: human; details: may cause harmful or lethal effect on human in case of being dosed excessively; cited from earlier work

Row | Compound | LD50 ([1]; female) | LD50 ([1]; male) | lethal case [2] | chromosome abnormality test [3] | nucleus test (micronucleous test) [4] | AMES test [5] | MIC [7] | MIC [8] | MIC [10] | MIC [11] | Efficacy (%) 0 day later [12] | Efficacy (%) 1 day later [12] | Efficacy (%) 2 day later [12] | Efficacy (%) 3 day later [12] | Efficacy (%) 4 day later [12] | Efficacy (%) 5 day later [12] | Efficacy (%) 6 day later [12] | Efficacy (%) 7 day later [12] | MIC [13] | MIC [14] | also measured
1 | COc1ccc2c(Cc3cccc(C(F)(F)F)c3)c3[n+](cc2c1OC)CCc1cc2c(cc1-3)OCO2 [compound 25, 13-(3-trifluoromethylbenzyl)berberine chloride] | > 2500 mg/kg | > 3000 mg/kg | not observed | negative | negative | negative |  |  |  |  |  |  |  |  |  |  |  |  |  |  | 
2 | COc1ccc2c(c1OC)CN1CCc3cc4c(cc3C1C2)OCO4 (stereo not shown) [tetrahydroberberine] |  |  |  |  |  |  |  |  |  |  |  |  |  |  |  |  |  |  |  |  | antibacterial effect of derivatives without quaternary ammonium salt ([6]; Pitea et al. 1972): exhibits less effect
3 | COc1ccc2c(Cc3ccc(C(C)(C)C)cc3)c3[n+](cc2c1OC)CCc1cc2c(cc1-3)OCO2 [compound 62, 13-(4-t-butylbenzyl)berberine chloride] | > 2700 mg/kg | > 3700 mg/kg | not observed | negative | negative | negative | 0.78 µg/mL | 6.25 µg/mL | 12.5 µg/mL | 0.78 µg/mL | 0% | 40.0% | 55.4% | 69.4% | 72.6% | 76.3% | 79.2% | 85.4% | > 100 µg/mL | 6.25 µg/mL | remedial effect ([9]; in 8 of 10 male patients): more than 98%; patients exhibiting remedial effect more than 98% ([9]; of 10 male patients): 8 Patients; MIC [15]: 0.78 µg/mL; MIC [16]: 0.78 µg/mL; MIC [17]: > 100 µg/mL; MIC [18]: 0.78 µg/mL; MIC [19]: 12.5 µg/mL; MIC [20]: 6.25 µg/mL; MIC [21]: 3.12 µg/mL
4 | COc1ccc2c(Cc3ccc(C(C)C)cc3)c3[n+](cc2c1OC)CCc1cc2c(cc1-3)OCO2 [compound 63, 13-(4-i-propylbenzyl)berberine chloride] | > 2000 mg/kg | > 2500 mg/kg | not observed | negative | negative | negative | 1.56 µg/mL | 6.25 µg/mL | 12.5 µg/mL | 0.78 µg/mL | 0% | 42.5% | 52.5% | 59.8% | 64.6% | 73.6% | 75.6% | 80.2% | > 100 µg/mL | 6.25 µg/mL | MIC [15]: 1.56 µg/mL; MIC [16]: 0.78 µg/mL; MIC [17]: > 100 µg/mL; MIC [18]: 6.25 µg/mL; MIC [19]: 12.5 µg/mL; MIC [20]: 6.25 µg/mL; MIC [21]: 3.12 µg/mL
5 | COc1ccc2cc3[n+](cc2c1OC)CCc1cc2c(cc1-3)OCO2 [berberine sulfate] |  |  |  |  |  |  |  |  |  |  |  |  |  |  |  |  |  |  |  |  | concentration inhibiting the growth of fungi [22]: 10 to 25 mg/mL; effect in mice infected with Candida albicans [23]: effective; toxicity [24]: exhibits intense toxicity
6 | COc1ccc2cc3[n+](cc2c1OC)CCc1cc2c(cc1-3)OCO2 [Berberine chloride] |  |  |  |  |  |  |  |  |  |  |  |  |  |  |  |  |  |  |  |  | antibacterial activity ([6]; Ukita et al. 1949): exhibits antibacterial activity
7 | CCCOc1cc2c(cc1OCCC)-c1cc3ccc(OCCC)c(OCCC)c3c[n+]1CC2 [compound 85, 2,3,9,10-tetrapropoxy protoberberine iodide] | > 5000 mg/kg | > 5000 mg/kg | not observed | negative | negative | negative | 0.4 µg/mL | 50 µg/mL | > 100 µg/mL | 0.78 µg/mL | 0% | 34.5% | 38.8% | 42.5% | 54.6% | 63.2% | 68.0% | 70.5% | 12.5 µg/mL | 6.25 µg/mL | MIC [15]: 0.4 µg/mL; MIC [16]: 0.4 µg/mL; MIC [17]: > 100 µg/mL; MIC [18]: 0.4 µg/mL; MIC [19]: > 100 µg/mL; MIC [20]: 6.25 µg/mL; MIC [21]: 1.56 µg/mL
